Measurements published in PMC3639963, “A New Class of Small Molecule Inhibitor of BMP Signaling” (PLoS ONE, 2013).

What was measured:
Assay in all cases: Nanosyn kinase profiling
Type in all cases: biochemical
Settings in all cases: read-out: Percentage inhibition; for inhibition at 0.1 µM: 0.1 µM inhibitor; for inhibition at 1 µM: 1 µM inhibitor
HIPK1 = molecular target: T1, HIPK1 (Homo sapiens, UniProt Q86Z02)
T1 construct: purchased Nanosyn (enzymatic panel); SGC in-house recombinant human kinases (DSF panel); Invitrogen (ALK1-6)
Procedure: (§1) Percentage inhibition was determined for each kinase at both 0.1 µM and 1 µM inhibitor concentration (supplemental Table S2). […]. […]. When visualized on a kinase phylogenetic tree, these were primarily clustered within the receptor tyrosine kinases (TKs) as well as the calmodulin-dependent kinases (CAMKs) (Figure 2C).
(§2) Inhibitor selectivity profiling against 200 human kinases at 0.1 and 1 µM inhibitor concentration was performed by Nanosyn (www.nanosyn.com).

EPHB4 = molecular target: T2, EPHB4 (Homo sapiens, UniProt P54760)
T2 construct: purchased Nanosyn (enzymatic panel); SGC in-house recombinant human kinases (DSF panel); Invitrogen (ALK1-6)
T2 sequence (P54760 16-987): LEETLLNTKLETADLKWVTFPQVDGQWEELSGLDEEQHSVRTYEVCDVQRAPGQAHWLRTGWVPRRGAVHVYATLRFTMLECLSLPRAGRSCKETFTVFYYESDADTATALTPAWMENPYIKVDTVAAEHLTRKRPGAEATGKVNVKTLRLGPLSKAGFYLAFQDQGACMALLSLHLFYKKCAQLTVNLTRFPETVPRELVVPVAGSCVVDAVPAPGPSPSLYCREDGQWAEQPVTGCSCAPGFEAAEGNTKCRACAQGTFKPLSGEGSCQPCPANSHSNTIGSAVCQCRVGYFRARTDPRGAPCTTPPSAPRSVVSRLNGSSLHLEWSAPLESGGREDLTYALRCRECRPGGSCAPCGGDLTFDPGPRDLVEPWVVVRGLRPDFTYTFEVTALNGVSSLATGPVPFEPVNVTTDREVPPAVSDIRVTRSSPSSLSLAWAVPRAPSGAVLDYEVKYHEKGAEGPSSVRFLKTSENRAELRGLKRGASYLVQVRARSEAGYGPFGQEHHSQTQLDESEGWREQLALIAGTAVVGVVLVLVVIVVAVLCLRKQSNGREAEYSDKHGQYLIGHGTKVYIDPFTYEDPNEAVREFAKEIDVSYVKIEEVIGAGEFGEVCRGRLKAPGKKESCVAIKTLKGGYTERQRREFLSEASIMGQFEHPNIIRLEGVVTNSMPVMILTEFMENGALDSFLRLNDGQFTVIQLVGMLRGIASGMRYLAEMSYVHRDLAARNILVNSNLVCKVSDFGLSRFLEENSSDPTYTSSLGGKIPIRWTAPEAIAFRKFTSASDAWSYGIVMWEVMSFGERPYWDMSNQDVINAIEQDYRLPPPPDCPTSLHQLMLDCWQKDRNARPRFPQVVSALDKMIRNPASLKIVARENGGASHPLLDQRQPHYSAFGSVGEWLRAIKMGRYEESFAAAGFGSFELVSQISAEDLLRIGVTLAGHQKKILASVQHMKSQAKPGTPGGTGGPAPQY
Procedure: as §1, §2

MER = molecular target: T3, MER (Homo sapiens, UniProt Q12866)
T3 construct: purchased Nanosyn (enzymatic panel); SGC in-house recombinant human kinases (DSF panel); Invitrogen (ALK1-6)
T3 sequence (Q12866 21-999): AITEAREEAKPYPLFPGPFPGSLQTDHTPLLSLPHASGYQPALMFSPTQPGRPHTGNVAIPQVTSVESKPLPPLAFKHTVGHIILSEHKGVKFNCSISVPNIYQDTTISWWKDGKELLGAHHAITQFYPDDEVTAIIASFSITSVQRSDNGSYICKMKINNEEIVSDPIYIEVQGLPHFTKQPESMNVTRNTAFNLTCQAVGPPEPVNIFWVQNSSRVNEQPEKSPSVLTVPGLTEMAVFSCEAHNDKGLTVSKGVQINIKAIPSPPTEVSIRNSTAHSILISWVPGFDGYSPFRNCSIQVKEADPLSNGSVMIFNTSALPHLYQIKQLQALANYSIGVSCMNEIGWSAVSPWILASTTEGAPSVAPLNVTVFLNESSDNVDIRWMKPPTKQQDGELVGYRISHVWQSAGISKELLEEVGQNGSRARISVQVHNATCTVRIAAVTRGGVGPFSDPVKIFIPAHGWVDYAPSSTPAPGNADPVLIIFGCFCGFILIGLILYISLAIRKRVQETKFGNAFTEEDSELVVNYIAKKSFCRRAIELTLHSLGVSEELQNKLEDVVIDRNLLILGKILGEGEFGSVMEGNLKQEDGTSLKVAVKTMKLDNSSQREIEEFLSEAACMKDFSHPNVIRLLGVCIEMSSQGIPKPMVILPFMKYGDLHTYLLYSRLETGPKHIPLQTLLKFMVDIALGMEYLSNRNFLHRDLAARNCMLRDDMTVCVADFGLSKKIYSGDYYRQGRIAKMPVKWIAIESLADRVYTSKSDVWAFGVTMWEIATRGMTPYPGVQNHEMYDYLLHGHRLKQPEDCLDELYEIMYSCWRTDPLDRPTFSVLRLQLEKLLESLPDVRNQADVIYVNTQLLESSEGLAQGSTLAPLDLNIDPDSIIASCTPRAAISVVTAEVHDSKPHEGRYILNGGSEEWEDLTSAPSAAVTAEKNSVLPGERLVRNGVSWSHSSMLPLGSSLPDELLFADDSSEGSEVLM
Procedure: as §1, §2

CDK5/p35 = molecular target: T4, CDK5/p35 (Homo sapiens, UniProt Q00535)
T4 construct: purchased Nanosyn (enzymatic panel); SGC in-house recombinant human kinases (DSF panel); Invitrogen (ALK1-6)
Procedure: as §1, §2

TNK1 = molecular target: T5, TNK1 (Homo sapiens, UniProt Q13470)
T5 construct: purchased Nanosyn (enzymatic panel); SGC in-house recombinant human kinases (DSF panel); Invitrogen (ALK1-6)
T5 sequence (Q13470 1-666): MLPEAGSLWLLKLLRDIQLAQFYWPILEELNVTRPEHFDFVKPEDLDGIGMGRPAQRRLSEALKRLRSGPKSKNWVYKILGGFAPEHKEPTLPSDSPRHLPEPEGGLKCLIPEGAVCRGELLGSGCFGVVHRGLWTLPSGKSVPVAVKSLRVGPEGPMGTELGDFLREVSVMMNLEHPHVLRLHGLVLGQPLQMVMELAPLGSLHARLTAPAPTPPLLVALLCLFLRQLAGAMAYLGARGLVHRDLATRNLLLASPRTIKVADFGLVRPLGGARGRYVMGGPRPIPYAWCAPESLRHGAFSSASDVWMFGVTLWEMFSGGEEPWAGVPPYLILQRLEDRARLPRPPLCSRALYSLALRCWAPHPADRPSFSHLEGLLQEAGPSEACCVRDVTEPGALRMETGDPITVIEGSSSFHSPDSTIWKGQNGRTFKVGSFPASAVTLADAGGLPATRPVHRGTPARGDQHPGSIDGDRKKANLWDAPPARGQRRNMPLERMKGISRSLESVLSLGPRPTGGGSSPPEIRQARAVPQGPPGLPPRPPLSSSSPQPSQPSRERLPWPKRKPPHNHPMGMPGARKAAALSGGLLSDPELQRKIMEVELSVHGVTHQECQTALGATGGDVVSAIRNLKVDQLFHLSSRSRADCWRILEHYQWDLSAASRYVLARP
Procedure: as §1, §2

T4 sequence (Q00535 whole entry): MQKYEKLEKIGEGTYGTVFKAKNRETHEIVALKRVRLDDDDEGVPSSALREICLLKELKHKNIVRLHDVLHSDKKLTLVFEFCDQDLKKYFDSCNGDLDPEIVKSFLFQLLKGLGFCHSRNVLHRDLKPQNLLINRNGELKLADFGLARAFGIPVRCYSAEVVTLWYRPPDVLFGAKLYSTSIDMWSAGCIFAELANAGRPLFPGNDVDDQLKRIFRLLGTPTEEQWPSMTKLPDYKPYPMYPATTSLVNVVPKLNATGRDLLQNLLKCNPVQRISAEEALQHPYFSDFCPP
T4 sequence (Q15078 whole entry partner): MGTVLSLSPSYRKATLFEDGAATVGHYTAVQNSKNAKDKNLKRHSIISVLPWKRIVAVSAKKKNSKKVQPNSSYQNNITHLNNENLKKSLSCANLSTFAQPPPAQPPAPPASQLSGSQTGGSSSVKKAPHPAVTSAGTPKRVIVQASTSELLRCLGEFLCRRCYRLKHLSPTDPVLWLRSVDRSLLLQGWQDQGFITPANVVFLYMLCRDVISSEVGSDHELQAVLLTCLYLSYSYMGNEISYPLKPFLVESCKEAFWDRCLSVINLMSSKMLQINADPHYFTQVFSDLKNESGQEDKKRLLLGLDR
T1 sequence (Q86Z02 whole entry): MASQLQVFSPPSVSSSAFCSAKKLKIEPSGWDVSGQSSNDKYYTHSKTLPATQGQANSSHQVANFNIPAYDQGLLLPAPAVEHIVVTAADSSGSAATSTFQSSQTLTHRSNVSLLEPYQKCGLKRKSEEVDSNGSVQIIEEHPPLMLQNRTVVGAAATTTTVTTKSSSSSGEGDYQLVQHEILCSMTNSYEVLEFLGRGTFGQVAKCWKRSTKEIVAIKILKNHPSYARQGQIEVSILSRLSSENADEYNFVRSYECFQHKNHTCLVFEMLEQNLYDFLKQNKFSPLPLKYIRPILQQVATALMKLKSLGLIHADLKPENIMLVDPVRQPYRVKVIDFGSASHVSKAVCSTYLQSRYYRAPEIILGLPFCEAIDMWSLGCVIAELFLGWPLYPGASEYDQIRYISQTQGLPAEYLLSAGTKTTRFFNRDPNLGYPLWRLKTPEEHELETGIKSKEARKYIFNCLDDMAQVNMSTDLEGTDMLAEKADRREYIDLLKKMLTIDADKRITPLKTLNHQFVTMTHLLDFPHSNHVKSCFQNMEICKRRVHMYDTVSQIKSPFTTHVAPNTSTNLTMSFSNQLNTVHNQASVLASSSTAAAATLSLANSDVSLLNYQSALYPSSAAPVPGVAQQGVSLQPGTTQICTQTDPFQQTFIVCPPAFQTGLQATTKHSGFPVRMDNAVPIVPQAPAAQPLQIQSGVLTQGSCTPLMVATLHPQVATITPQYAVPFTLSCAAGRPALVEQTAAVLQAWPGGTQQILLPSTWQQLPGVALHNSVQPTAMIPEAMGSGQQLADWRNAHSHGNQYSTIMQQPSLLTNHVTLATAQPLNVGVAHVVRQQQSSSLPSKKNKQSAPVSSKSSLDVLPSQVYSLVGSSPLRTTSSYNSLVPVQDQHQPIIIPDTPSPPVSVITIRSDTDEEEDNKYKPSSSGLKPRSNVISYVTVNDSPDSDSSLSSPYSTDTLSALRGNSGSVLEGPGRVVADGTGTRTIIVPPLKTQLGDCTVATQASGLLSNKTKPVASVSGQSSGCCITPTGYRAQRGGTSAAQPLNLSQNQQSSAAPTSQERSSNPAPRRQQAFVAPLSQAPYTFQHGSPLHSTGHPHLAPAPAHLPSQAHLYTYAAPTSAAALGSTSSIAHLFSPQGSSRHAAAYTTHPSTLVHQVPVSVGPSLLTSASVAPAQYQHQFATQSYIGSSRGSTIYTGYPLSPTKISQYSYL

Work on `COc1cc(-c2cc(-c3cccc(O)c3)cnc2N)cc(OC)c1OC` [K02288, 3-[6-amino-5-(3,4,5-trimethoxy-phenyl)-pyridin-3-yl]-phenol] yielded an inhibition at 0.1 µM (HIPK1) of 1.7%, an inhibition at 1 µM (HIPK1) of 3.1% and an inhibition at 0.1 µM (EPHB4) of 0%. For the same compound, the inhibition at 1 µM (EPHB4) was 5.9%, the inhibition at 0.1 µM (MER) was 5.1% and the inhibition at 1 µM (MER) was 40%. The inhibition at 0.1 µM (CDK5/p35) was 0.3%, the inhibition at 1 µM (CDK5/p35) was 1.9% and the inhibition at 0.1 µM (TNK1) was 0.4%. The inhibition at 1 µM (TNK1) was 10%.
For `c1ccc2c(-c3cnn4cc(-c5ccc(N6CCNCC6)cc5)cnc34)ccnc2c1` [LDN-193189], the inhibition at 0.1 µM (HIPK1) was 0.6%, the inhibition at 1 µM (HIPK1) was 4.4% and the inhibition at 0.1 µM (EPHB4) was -1%. It also gave an inhibition at 1 µM (EPHB4) of 6.6%, an inhibition at 0.1 µM (MER) of 4.4% and an inhibition at 1 µM (MER) of 10%. For the same compound, the inhibition at 0.1 µM (CDK5/p35) was 1.4%, the inhibition at 1 µM (CDK5/p35) was 8.5% and the inhibition at 0.1 µM (TNK1) was 18%. It also gave an inhibition at 1 µM (TNK1) of 63%.
